Source: US20100152284A1, “PREVENTION AND REVERSAL OF CHEMOTHERAPY-INDUCED PERIPHERAL NEUROPATHY” (NOVOGEN RESEARCH PTY LTD, priority 2006, published 2010)
Several values for one entry are separate records, joined by “and”; a condition that tells them apart may be missing. Equal values may be shown once.

Tests used:
[1] = test system: differentiated PC12 cells; test: Recovery from cisplatin-induced neurite toxicity (24 h drug, 24 h wash-out, 24 h phenoxodiol); assay type: cell-based; details: after 48 hrs of recovery
Procedure: To determine whether phenoxodiol could have an effect on recovery from cisplatin- or paclitaxel-induced neurite toxicity by exacerbation, reversal, retardation or facilitation of repair, recovery experiments were performed. When conducting the recovery experiments, the concentrations of phenoxodiol tested were decreased by 1 log to 10 nM 100 nM and 1 μM.

[2] = test system: differentiated PC12 cells; test: Neurite toxicity: percentage of differentiated PC12 cells with neurites after 24 h incubation; details: for reduction in the percentage of cells with neurites: strong dose; for inhibition of neurite outgrowth, dose responsiveness: increasing concentrations, 24 hrs, FIG. 1; for reduction in cells with neurites compared to no treatment control: Example 2, p<0.001
Procedure: PC-12 cells were maintained in Dulbecco's Modified Eagle Media (DMEM; Gibco) with 10% calf serum (Turbo calf serum, Invitrogen), 5% horse serum (JRH Biosciences, Victoria, Australia) and 1% penicillin/streptomycin (Invitrogen) at 37° C., in a 5% CO2 atmosphere. Differentiation into neurons was achieved by seeding cells at a density of 15,000 cells/well in 24-well plates (Falcon Becton Dickinson), on 13 mm glass cover slips (Menzel Glaser, Germany) coated with laminin (Invitrogen) and poly-DL-ornithine (Sigma) in DMEM plus 1% horse serum and 50 ng/mL of nerve growth factor (NGF) (Sigma). The cells were incubated for 72 hours under differentiation conditions, before use in the neurite outgrowth assays below.
Working concentrations were diluted in PC12 cell differentiation medium as above. Treatments consisted of a 24 hour incubation in differentiation media with various concentrations of either agent.
Outgrowing projections were considered neurites if they were greater than a cell body width (10 μm), essentially as previously described. Images of all neurons in thirty randomly selected fields were digitally captured using an Olympus BX60 fluorescence microscope with a UPIanFI 40×/0.75 objective lens and a Zeiss Axiocam HRc digital camera and Zeiss Axiovision 3.1 software. Neurons in all fields were counted per condition and the number of cells with neurites expressed as a percentage of total cells present and error expressed as the standard error of the mean (sem). Each experiment was conducted in triplicate and the results pooled. Statistical significance of data was analysed using ANOVA followed by the Bonferroni post-hoc test.
Neurite toxicity was determined as the percent of cells comprising neurite outgrowths as described in Example 1.

[3] = patients receiving therapy; cited from earlier work
[4] = test system: differentiated PC12 cells; test: Neurite length (longest neurite per neuron) in differentiated PC12 cells; assay type: cell-based
Procedure: Further to the above described analysis of cells containing neurites, the longest neurite per neuron present in each frame was measured using Image J open source software (NIH, USA).

[5] = test system: differentiated PC12 cells; test: βIII-tubulin immunocytochemistry of treated differentiated PC12 cells; assay type: cell-based; details: 24 hrs
Description: Further, immunocytochemistry was used to visualise the neurite toxicity effects described above. To do so, following the treatment period, cells were washed with PBS, fixed with 4% paraformaldehyde and permeabilised with ice-cold methanol. Neurons were immunostained for the neuronal marker βIII-tubulin (Promega; Madison, Wisconson, USA) and a Cy3-conjugated anti-mouse antibody (Invitrogen) was used to visualise the staining.

[6] = test system: PC12 cells
Procedure: A serial dilution was also conducted for phenoxodiol to determine the concentration which would not affect normal growth of the differentiated cells. […] Working concentrations were diluted in PC12 cell differentiation medium as above.

In the case of N.N.[Cl][Pt][Cl] [cisplatin, Cis-diamine-dichloro-platinum], the “neurite toxicity compared to the no treatment control” value ([1]; cisplatin 1 μg/ml) is reported as “no neurite toxicity”, the “neurite toxicity compared to the no treatment control” value ([1]; cisplatin 20 μg/ml, p<0.001) is reported as “greater than 50%” and the “reduction in percentage of cells with neurites” value ([2]; cisplatin 1 μg/mL (3.33 μM), moderate dose, 24 h, Example 1) is reported as 31.9%. For the same compound, the “reduction in the percentage of cells with neurites” value ([2]; cisplatin 20 μg/mL (66.65 μM), 24 h, Example 1) was 65.8%, the “neurite toxicity (percent neurites)” value ([2]; cisplatin alone 1 μg/ml, Example 2, ANOVA, t-test P<0.02) was “non-significant (n.s.) trend for moderate toxicity” and the “decrease in percent neurites compared to control” value ([2]; cisplatin alone 20 μg/ml, Example 2, P<0.001) was 42%. The “inhibition of neurite outgrowth, dose responsiveness” value [2] was “dose response in inhibition of neurite outgrowth”, the “patients experiencing mild neuropathy” value [3] was “around 40%” and the “patients experiencing severe neuropathy” value [3] was “approximately 4%”. The “average neurite length of the remaining neurites” value ([4]; cisplatin alone) was “no significant effect on the average neurite length” and the “percentage of cells bearing neurites compared to control (βIII-tubulin staining)” value ([5]; cisplatin 20 μg/ml) was “decreased the percentage of cells bearing neurites”.
With CC(=O)O[C@H]1C(=O)[C@@]2(C)[C@H]([C@H](OC(=O)c3ccccc3)[C@]3(O)C[C@H](OC(=O)[C@H](O)[C@@H](NC(=O)c4ccccc4)c4ccccc4)C(C)=C1C3(C)C)[C@]1(OC(C)=O)CO[C@@H]1C[C@@H]2O [paclitaxel] the “cytotoxicity at the chosen concentrations” value [6] was “did not produce cytotoxicity”, the “inhibition of neurite outgrowth, dose responsiveness” value [2] was “dose response in inhibition of neurite outgrowth” and the “decrease in the percentage of cells possessing neurites” value ([2]; paclitaxel 0.156 μg/mL (0.18 μM), moderate dose, 24 h, Example 1) was 33%. For the same compound, the “reduction in the percentage of cells with neurites” value ([2]; paclitaxel 2.5 μg/mL (2.93 μM), 24 h, Example 1) was 73.6%, the “reduction in cells with neurites compared to no treatment control” value ([2]; paclitaxel moderate dose (0.156 μg/ml)) was 58% and the “reduction in cells with neurites compared to no treatment control” value ([2]; paclitaxel strong dose (2.4 μg/ml/2.93 μM)) was 72%. For the same compound, the “neurite length compared to the no treatment control” value ([4]; paclitaxel alone, both concentrations used, p<0.001) was “reduced neurite length”.
For Oc1ccc(C2=Cc3ccc(O)cc3OC2)cc1 [phenoxodiol, 2H-1-benzopyran-7-0,1,3-[4-hydroxyphenyl]], the cytotoxicity ([6]; 10 μM, data not shown) was “considerable cytotoxicity”, the “effect on cell death or neurite outgrowth” value ([6]; doses up to 1 μM, data not shown) was “no effect on cell death or neurite outgrowth” and the “maximal concentration tested that did not affect survival of PC12 cells” value ([6]; serial dilution) was 1 μM and 3.2 μg/ml. The “sensitivity of neurite toxicity to the protective effect relative to cytotoxic and anti-proliferative effects in cancer cell lines” value ([2]; PC12 neuronal cell model vs a variety of cancer cell lines) was “approximately 10 fold”, the “neurite toxicity in combination, compared to phenoxodiol 10 μM alone” value ([2]; phenoxodiol 10 μM + cisplatin 1 μg/ml (P<0.01) or 20 μg/ml (P<0.001)) was “increased toxicity” and the “neurite toxicity in combination, compared to phenoxodiol 10 μM alone” value ([2]; phenoxodiol 10 μM + paclitaxel, both concentrations (P<0.001)) was “increased toxicity”. For the same compound, the “effect on percent neurites” value ([2]; phenoxodiol alone 10 μM, 24 h, P<0.001 vs no treatment control) was “significant neurite toxicity”, the “average neurite length compared to no treatment control” value ([4]; phenoxodiol 10 μM alone, p<0.001) was “significant reductions in average neurite length” and the “average neurite length compared to no treatment control” value ([4]; phenoxodiol 10 μM in combination with Cisplatin and Paclitaxel, p<0.001) was “significant reductions in average neurite length”. The “cell and neurite toxicity in βIII-tubulin stained cells” value ([5]; phenoxodiol 10 μm) was “Significant cell and neurite toxicity”.
